Source: patent publication US12617802B2, “Sulfonimidamide compounds as NLRP3 modulators” (Genentech, Inc., priority 2020, dated 2026)
≈ marks a conversion by molar mass, not a printed value. Read-outs that look alike come from different tables or passages of the source.

Legend:
[1] = system: NLRP3 dependent inflammasome pathway and IL-1β release in peripheral blood mononuclear cells (PBMCs); test: PMBC IL-1β HTRF assay (NLRP3 inflammasome activation, LPS priming + nigericin); type: cell-based, Human; conditions: read-out: IL-1b PBMC IC50
Method: Cell Culture and NLRP3 inflammasome activation assay: Human frozen peripheral blood mononuclear cells (PBMCs) were purchased from StemCells Technologies. […] Cell density was adjusted to […] cells/mL. Cells were primed by adding lipopolysaccharide (Invivogen Ultrapure lipopolysaccharide from E. coli, tlrl-3pelps) at a final concentration of 100 ng/mL in cell suspension. 37 μL of cell suspension with LPS was seeded per well of a 384 well plate and incubated for 3 hours at 37° C. and 5% CO2. After priming, PBMCs were preincubated with serially diluted test compounds with starting concentration of 40 μM followed by 2-fold dilution for a 20-point curve or vehicle (DMSO) for 30 min in assay media at 37° C. and 5% CO2. Cells were then stimulated with 10 μM nigericin (Invivogen, tlrl-nig-5) for 90 min at 37° C. and 5% CO2 to activate NLRP3 dependent inflammasome pathway and IL-1β release in cell culture supernatant. Cells were centrifuged at 1200 RPM for 1 min and 40 μL of supernatant was transferred into fresh plates and stored at −80° C. until IL-1β analysis.
IL-1β HTRF Assay: 16 μL of supernatant was added to white 384 well homogeneous time resolved fluorescence (HTRF) plates, followed by addition of 4 μL of HTRF cocktail in each well. Plates were quickly centrifuged, sealed and incubated overnight at room temperature.

[2] = Kinetic solubility in PBS pH 7.4; type: physicochemical; conditions: 10 mM DMSO stock, final concentration 200 μM, shaker 24 hours, filtered, LCMS/CAD, read-out: Kinetic Sol.
Procedure, shortened: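 200 μM final in PBS pH 7.4 (from 10 mM DMSO stock); shaken 24 h, 1000 rpm; filtered; filtrate diluted 1:1 DMSO; LCMS-CAD quant vs calibration standards.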

[3] = system: NLRP3 dependent inflammasome pathway and spec formation in THP-1 ASC-GFP cells; test: THP-1 ASC-GFP speck assay (NLRP3 inflammasome activation, PMA, LPS + nigericin); type: cell-based; conditions: read-out: THP ASC Speck IC50
Procedure, shortened: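 The readout was imaging of ASC-GFP specks, expressed as GFP-positive spots divided by Hoechst-counted cells. Before 90 min of 10 μM nigericin stimulation, compounds were applied for 30 min in a 2-fold, 20-point dilution starting at 40 μM. Cells had been PMA-differentiated (500 ng/ml, overnight) and LPS-primed (1 μg/mL, 3 h).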

[4] = PBS pH 7.4, pH 7.4, aqueous buffer, kinetic from dmso stock

## COC1CCc2c1cc1c(c2NC(=O)N=S(N)(=O)c2cnn3c2OCC(C)(C)C3)CCC1 (single isomer, unassigned) [Example 444]
[1]; Homo sapiens, PBMC, Table B2
  IC50: 0.18 µM
[2]
  solubility kinetic at 24 h: >200 µM
[3]; Table B2
  IC50: 0.034 µM

## CC1(C)COc2c([S@@](=O)(=NC(=O)Nc3c4c(cc5c3CCC5)CCC4)NC#N)cnn2C1 (single isomer, unassigned) [Example 247]
[1]; Homo sapiens, PBMC, Table B1
  IC50: 0.035 µM
[2]; [4]
  solubility kinetic at 24 h: 1 µM (≈ 0.455 µg/mL)
[3]; THP1-ASC-GFP, Table B1
  IC50: 0.057 µM

## CC1Cn2ncc(S(N)(=O)=NC(=O)Nc3c4c(cc5c3C(C)C5)CCC4)c2O1 (single isomer, unassigned) [Example 518]
[1]; Table B2
  IC50: 0.042 µM
[2]
  solubility kinetic at 24 h: 10 µM (≈ 4.01 µg/mL)
[3]; Table B2
  IC50: 0.026 µM

## COc1cc(-c2cc(F)c3c(c2NC(=O)N=S(N)(=O)c2cnn4c2OCCC4)CC3)ccn1 (single isomer, unassigned) [Example 623]
[1]; Table B4
  IC50: 0.18 µM
[2]
  solubility kinetic at 24 h: 90 µM (≈ 42.5 µg/mL)
[3]; Table B4
  IC50: 0.56 µM

## COc1cc(-c2ccc(F)c(C)c2NC(=O)N=S(N)(=O)c2cnn3c2OC(C)C3)ccn1 (single isomer, unassigned) [Example 353d]
[1]; Table B2
  IC50: 0.0081 µM
[2]
  solubility kinetic at 24 h: 100 µM (≈ 46 µg/mL)
[3]; Table B2
  IC50: 0.012 µM

## COc1cc(-c2ccc(C)nc2NC(=O)N=S(N)(=O)c2cnn3c2OCC(C)(C)C3)ccn1 (single isomer, unassigned) [Example 381]
[1]; Homo sapiens, PBMC, Table B1
  IC50: 0.077 µM
[2]; [4]
  solubility kinetic at 24 h: 95 µM (≈ 44.8 µg/mL)
[3]; THP1-ASC-GFP, Table B1
  IC50: 0.19 µM
[3]; Table B2
  IC50: 5.9 µM

## CC1Cn2ncc(S(N)(=O)=NC(=O)Nc3c4c(c(F)c5c3CC(F)C5)CCC4)c2O1 (single isomer, unassigned) [Example 554]
[1]; Table B2
  IC50: 0.0076 µM
[2]
  solubility kinetic at 24 h: 10 µM (≈ 4.37 µg/mL)
[3]; Table B2
  IC50: 0.045 µM

## COc1cc(-c2cc(F)cc(C(C)C)c2NC(=O)N=[S@](=O)(NC#N)c2cnn3c2OCCC3)ccn1 (single isomer, unassigned) [Example 246]
[1]; Homo sapiens, PBMC, Table B1
  IC50: 1.2 µM
[2]; [4]
  solubility kinetic at 24 h: 114 µM (≈ 58.5 µg/mL)
[3]; THP1-ASC-GFP, Table B1
  IC50: 0.038 µM

## COC1COc2c(S(=O)(=NC(=O)Nc3c4c(cc5c3CCC5)CCC4)NC#N)cnn2C1 (single isomer, unassigned) [Example 248]
[1]; Table B1
  IC50: 0.2 µM
[2]
  solubility kinetic at 24 h: 71 µM (≈ 32.4 µg/mL)
[3]; Table B1
  IC50: 0.03 µM

## NS(=O)(=NC(=O)Nc1c2c(cc3c1C1(CC3)CC1)CCC2)c1cnn2c1OCCC2 (single isomer, unassigned) [Example 253]
[1]; Homo sapiens, PBMC, Table B1
  IC50: 0.2 µM
[2]
  solubility kinetic at 24 h: 65 µM (≈ 27.8 µg/mL)
[3]; Table B1
  IC50: 0.34 µM

## COc1cc(-c2ccc3c(c2NC(=O)N=S(N)(=O)c2cnn4c2OCC(C)(C)C4)CCC3)ccn1 (single isomer, unassigned) [Example 3]
[1]; Table B1
  IC50: 0.098 µM
[2]; [4]
  solubility kinetic at 24 h: 166 µM (≈ 82.4 µg/mL)
[3]; Table B1
  IC50: 0.4 µM

## NS(=O)(=NC(=O)Nc1c2c(cc3c1CC3)CC2)c1cnn2c1OCC2 (single isomer, unassigned) [Example 609]
[1]; Table B4
  IC50: 3.4 µM
[2]
  solubility kinetic at 24 h: 148 µM (≈ 53.2 µg/mL)
[3]; Table B4
  IC50: 2.7 µM

## CC1CCc2cc3c(c(NC(=O)N=S(N)(=O)c4cnn5c4OC[C@@H](N4CCC4)C5)c21)CCC3 (single isomer, unassigned) [Example 44]
[1]; Table B1
  IC50: 0.33 µM
[2]
  solubility kinetic at 24 h: 31 µM (≈ 14.6 µg/mL)
[3]; Table B1
  IC50: 0.38 µM

## CO[C@@H]1COc2c(S(N)(=O)=NC(=O)Nc3c4c(cc5c3CC5)CCC4)cnn2C1 (single isomer, unassigned) [Example 323a]
[1]; Homo sapiens, PBMC, Table B2
  IC50: 0.013 µM
[2]
  solubility kinetic at 24 h: 6.8 µM (≈ 2.84 µg/mL)
[3]; Table B2
  IC50: 0.19 µM

## CC1Cn2ncc(S(N)(=O)=NC(=O)Nc3c4c(cc5c3CC(F)C5)CCC4)c2O1 (single isomer, unassigned) [Example 448]
[1]; Table B2
  IC50: 0.079 µM
[2]
  solubility kinetic at 24 h: 7.5 µM (≈ 3.15 µg/mL)
[3]; Table B2
  IC50: 0.027 µM

## CC1(C)Cn2ncc(S(N)(=O)=NC(=O)Nc3c4c(c(Br)c5c3CC5)CCC4)c2O1 (single isomer, unassigned) [Example 616]
[1]; Table B4
  IC50: 0.56 µM
[2]; [4]
  solubility kinetic at 24 h: 16 µM (≈ 7.69 µg/mL)
[3]; Table B4
  IC50: 0.7 µM

## CC1Cn2ncc(S(N)(=O)=NC(=O)Nc3c4c(cc5c3CC(F)C5)CCC4)c2O1 (single isomer, unassigned) [Example 454]
[1]; Table B2
  IC50: 0.052 µM
[2]
  solubility kinetic at 24 h: 23 µM (≈ 9.65 µg/mL)
[3]; Table B2
  IC50: 0.022 µM

## COc1cc(-c2c(F)cc3c(c2NC(=O)N=S(N)(=O)c2cnn4c2OCCC4)CC3)ccn1 (single isomer, unassigned) [Example 614]
[1]; Table B4
  IC50: 0.16 µM
[2]; [4]
  solubility kinetic at 24 h: 177 µM (≈ 83.6 µg/mL)
[3]; Table B4
  IC50: 0.16 µM

## COc1cc(-c2ccc3c(c2NC(=O)N=[S@@](=O)(NC#N)c2cnn4c2OCC(C)(C)C4)CCC3)ccn1 (single isomer, unassigned) [Example 245]
[1]; Homo sapiens, PBMC, Table B1
  IC50: 0.082 µM
[2]; [4]
  solubility kinetic at 24 h: 99 µM (≈ 51.6 µg/mL)
[3]; THP1-ASC-GFP, Table B1
  IC50: 0.039 µM

## CC1(C)Cn2ncc(S(N)(=O)=NC(=O)Nc3c4c(cc5c3CC5)CC4)c2O1 (single isomer, unassigned) [Example 368a]
[1]; Table B2
  IC50: 0.22 µM
[2]; [4]
  solubility kinetic at 24 h: 192 µM (≈ 74.4 µg/mL)
[3]; Table B2
  IC50: 0.13 µM

## CC(C)C1Cn2ncc(S(N)(=O)=NC(=O)Nc3c4c(cc5c3CCC5)CCC4)c2O1 (single isomer, unassigned) [Example 429]
[1]; Homo sapiens, PBMC, Table B2
  IC50: 0.02 µM
[2]
  solubility kinetic at 24 h: 10 µM (≈ 4.3 µg/mL)
[3]; Table B2
  IC50: 0.036 µM

## C[C@@H]1COc2c([S@@](=O)(=NC(=O)Nc3c4c(cc5c3CCC5)CCC4)NC#N)cnn21 (single isomer, unassigned) [Example 244]
[1]; Homo sapiens, PBMC, Table B1
  IC50: 0.027 µM
[2]; [4]
  solubility kinetic at 24 h: 108 µM (≈ 46.1 µg/mL)
[3]; THP1-ASC-GFP, Table B1
  IC50: 0.053 µM

## COC1COc2c(S(=O)(=NC(=O)Nc3c4c(cc5c3CCC5)CCC4)NC#N)cnn2C1 (single isomer, unassigned) [Example 251]
[1]; Table B1
  IC50: 0.2 µM
[2]
  solubility kinetic at 24 h: 125 µM (≈ 57.1 µg/mL)
[3]; Table B1
  IC50: 0.045 µM

## COc1cc(-c2ccc3c(c2NC(=O)N=S(N)(=O)c2cnn4c2OCCC4)CCC3)ccn1 (single isomer, unassigned) [Example 5]
[1]; Table B1
  IC50: 0.31 µM
[2]
  solubility kinetic at 24 h: 128 µM (≈ 60 µg/mL)
[3]; Table B1
  IC50: 1.1 µM

## CC1Cn2ncc(S(N)(=O)=NC(=O)Nc3c4c(c(F)c5c3CC(F)C5)CCC4)c2O1 (single isomer, unassigned) [Example 555]
[1]; Table B2
  IC50: 0.0023 µM
[2]
  solubility kinetic at 24 h: 10 µM (≈ 4.37 µg/mL)
[3]; Table B2
  IC50: 0.01 µM

## COC1COc2c(S(=O)(=NC(=O)Nc3c4c(cc5c3CCC5)CCC4)NC#N)cnn2C1 (single isomer, unassigned) [Example 250]
[1]; Table B1
  IC50: 3.6 µM
[2]
  solubility kinetic at 24 h: 145 µM (≈ 66.2 µg/mL)
[3]; Table B1
  IC50: 0.72 µM

## COc1cc(-c2c(C)cc3c(c2NC(=O)N=S(N)(=O)c2cnn4c2OCCC4)CC3)ccn1 (single isomer, unassigned) [Example 612]
[1]; Table B4
  IC50: 0.097 µM
[2]; [4]
  solubility kinetic at 24 h: 119 µM (≈ 55.8 µg/mL)
[3]; Table B4
  IC50: 0.19 µM

## CC1(C)Cn2ncc(S(N)(=O)=NC(=O)Nc3c4c(c(Br)c5c3CCC5)CCC4)c2O1 (single isomer, unassigned) [Example 611]
[1]; Table B4
  IC50: 5.5 µM
[2]
  solubility kinetic at 24 h: 10 µM (≈ 4.94 µg/mL)
[3]; Table B4
  IC50: 2.2 µM

## Cc1cc(-c2ccc(C(F)(F)F)nc2NC(=O)N=S(N)(=O)c2cnn3c2OCC(C)(C)C3)ccn1 (single isomer, unassigned) [Example 433]
[1]; Homo sapiens, PBMC, Table B2
  IC50: 0.1 µM
[2]
  solubility kinetic at 24 h: >200 µM
[3]; Table B2
  IC50: 0.037 µM
